Source: US6147100A, “Pyrrolidine derivatives having phospholipase A2 inhibitory activity” (Shionogi & Co., Ltd., priority 1997, dated 2000)

Legend:
cPLA2 = biological target: T1, cPLA2 (Homo sapiens, UniProt P47712); assay: cPLA2 Inhibitory Activity; type: biochemical; conditions: 1-palmitoyl-2-[14C]-arachidonoyl-sn-glycero-3-phosphocholine 2.5 μM, sn-1,2-dioleoylglycerol 1.25 μM; pH 7.5, 15 min at 37° C.
T1 sequence (P47712 1-749): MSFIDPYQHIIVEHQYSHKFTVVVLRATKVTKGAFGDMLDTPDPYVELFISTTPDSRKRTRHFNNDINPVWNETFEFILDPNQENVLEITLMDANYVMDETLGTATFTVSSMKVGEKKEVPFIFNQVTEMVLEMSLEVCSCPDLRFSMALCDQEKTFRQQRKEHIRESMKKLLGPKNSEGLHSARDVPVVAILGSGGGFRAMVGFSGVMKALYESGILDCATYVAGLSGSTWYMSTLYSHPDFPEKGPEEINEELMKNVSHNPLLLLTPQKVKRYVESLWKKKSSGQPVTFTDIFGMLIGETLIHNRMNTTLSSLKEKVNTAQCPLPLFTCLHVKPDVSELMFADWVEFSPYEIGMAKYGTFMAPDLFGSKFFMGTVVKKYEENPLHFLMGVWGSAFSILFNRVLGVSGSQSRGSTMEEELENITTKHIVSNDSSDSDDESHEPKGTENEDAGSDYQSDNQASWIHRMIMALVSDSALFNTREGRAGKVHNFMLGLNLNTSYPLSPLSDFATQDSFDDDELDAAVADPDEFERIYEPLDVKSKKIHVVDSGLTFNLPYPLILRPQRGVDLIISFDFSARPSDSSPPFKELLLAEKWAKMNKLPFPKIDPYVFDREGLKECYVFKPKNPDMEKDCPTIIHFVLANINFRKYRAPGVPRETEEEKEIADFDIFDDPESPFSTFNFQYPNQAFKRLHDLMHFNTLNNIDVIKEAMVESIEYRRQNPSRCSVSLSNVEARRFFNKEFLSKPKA
Outline: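 Radiometric assay in 50 mM HEPES pH 7.5 with 1 mM CaCl2, 150 mM NaCl, 0.1 mg/ml BSA and 1.7 mM DTT; compound and substrate added, reaction started with enzyme, 15 min at 37° C. Released fatty acids extracted (Dole method), counted by liquid scintillation versus no-compound control.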

[1] = tested on: production of prostaglandin E2 by human fibroblasts; assay: Inhibition of Production of Prostaglandin E2 in Human Fibroblasts (IL-1 stimulation); type: cell-based; conditions: Fibroblast; human fibroblasts under stimulation with IL-1
Description: Test Example 2 Inhibition of Production of Prostaglandin E2 in Human Fibroblasts.
In order to examine the availability of the composition for inhibiting cytosolic phospholipase A2 (cPLA2) on the cells, the compounds of the present invention were tested for the effect on the production of prostaglandin E2 by human fibroblasts under the stimulation with IL-1 according to the method of J. M. Dayer et al (CACHECTIN/TUMOR NECROSIS FACTOR STIMULATES COLLAGENASE AND PROSTAGLANDIN E2 PRODUCTION BY HUMAN SYNOVIAL CELLS AND DERMAL FIBROBLASTS; J. M. Dayer, B, Beutler and A, Cerami, J. EXP. Med., 1985, 162, 2163-2168.).

| SMILES | IC50 (cPLA2) | IC50 [1] |
| --- | --- | --- |
| O=C1NC(=O)/C(=C/c2ccc(NC(=O)[C@@H]3C[C@@H](SCc4ccccc4-c4ccccc4)CN3C(=O)c3ccccc3C(=O)c3ccc(F)cc3)s2)S1 [Compound J-3] | 430 nM | 5700 nM |
| CN(C)c1cccc(O[C@@H]2C[C@@H](CNC(=O)c3ccc(/C=C4\SC(=O)NC4=O)cc3)N(C(=O)c3ccccc3C(=O)c3ccc(F)cc3)C2)c1 [Compound A-87] | 180 nM | 330 nM |
| O=C1NC(=O)/C(=C/c2ccc(C(=O)NC[C@@H]3C[C@@H](OCc4ccccc4-c4ccccc4)CN3C(=O)c3ccccc3C(=O)c3ccoc3)cc2)S1 [Compound A-17] | 1600 nM | 700 nM |
| CN(Cc1ccccc1)c1ccccc1CO[C@@H]1C[C@@H](CNC(=O)c2ccc(/C=C3\SC(=O)NC3=O)cc2)N(C(=O)c2ccccc2C(=O)c2ccc(F)cc2)C1 [Compound A-43] | 52 nM | 560 nM |
| O=C1NC(=O)/C(=C/c2ccc(C(=O)NC[C@@H]3C[C@@H](Oc4ccccc4-c4ccc5c(c4)OCO5)CN3C(=O)c3ccccc3C(=O)c3ccc(F)cc3)cc2)S1 [Compound A-101] | 62 nM | 350 nM |
| O=C1NC(=S)S/C1=C\c1ccc(C(=O)NC[C@@H]2C[C@@H](OCc3ccccc3-c3ccccc3)CN2C(=O)c2ccccc2C(=O)c2ccc(F)cc2)cc1 [Compound A-20] | 300 nM | 350 nM |
| O=C1NC(=S)S/C1=C\c1ccc(S(=O)(=O)NC[C@@H]2C[C@@H](SCc3ccccc3-c3ccccc3)CN2C(=O)c2ccccc2C(=O)c2ccc(F)cc2)cc1 [Compound I-4] | 480 nM | 1300 nM |
| O=C1NC(=O)/C(=C/c2ccc(C(=O)NC[C@@H]3C[C@@H](Oc4ccccc4-c4cccc(-c5ccccc5)c4)CN3C(=O)c3ccccc3C(=O)c3ccc(F)cc3)cc2)S1 [Compound A-112] | 65 nM | 1700 nM |
| O=C1NC(=O)/C(=C/c2ccc(C(=O)NC[C@@H]3C[C@@H](OCc4ccc(-c5ccccc5)cc4)CN3C(=O)c3ccccc3C(=O)c3ccccc3)cc2)S1 [Compound A-4] | 300 nM | 210 nM |
| O=C1NC(=O)/C(=C/c2ccc(S(=O)(=O)NC[C@@H]3C[C@@H](OCc4ccccc4-c4ccccc4)CN3C(=O)c3ccccc3C(=O)c3ccc(F)cc3)s2)S1 [Compound A-60] | 1300 nM | 1300 nM |
| O=C1NC(=O)/C(=C/c2ccc(C(=O)NC[C@@H]3C[C@@H](Oc4ccc(-c5ccccc5)cc4)CN3C(=O)c3ccccc3C(=O)c3ccc(F)cc3)cc2)S1 [Compound A-70] | 90 nM | 190 nM |
| O=C1NC(=O)/C(=C/c2ccc(C(=O)NC[C@H]3C[C@@H](OCc4ccccc4-c4ccccc4)CN3C(=O)c3ccccc3C(=O)c3ccc(F)cc3)cc2)S1 [Compound Q-2] | 1810 nM | 1400 nM |
| O=C1NC(=O)/C(=C/c2ccc(C(=O)NC[C@@H]3C[C@@H](OCc4ccccc4-c4ccc5ccccc5c4)CN3C(=O)c3ccccc3C(=O)c3ccc(F)cc3)cc2)S1 [Compound A-36] | 48 nM | 180 nM |
| O=C1NC(=O)/C(=C/c2ccc(NC(=O)[C@@H]3C[C@@H](SCc4ccccc4-c4ccccc4)CN3C(=O)c3ccccc3C(=O)c3ccc(F)cc3)cc2)S1 [Compound J-1] | 84 nM | 120 nM |
| O=C1NC(=O)/C(=C/c2ccc(C(=O)NC[C@@H]3C[C@@H](CCc4ccccc4-c4ccccc4)CN3C(=O)c3ccccc3C(=O)c3ccc(F)cc3)cc2)S1 [Compound O-3] | 55 nM | 1100 nM |
| CN(Cc1ccccc1-c1ccccc1)[C@@H]1C[C@@H](CNC(=O)c2ccc(/C=C3\SC(=O)NC3=O)cc2)N(C(=O)c2ccccc2C(=O)c2ccc(F)cc2)C1 [Compound M-6] | 140 nM | 1500 nM |
| O=C1NC(=O)/C(=C/c2ccc(CC[C@@H]3C[C@@H](OCc4ccccc4-c4ccccc4)CN3C(=O)c3ccccc3C(=O)c3ccc(F)cc3)cc2)S1 [Compound E-2] | 280 nM | 1100 nM |
| O=C1NC(=O)/C(=C/c2ccc(C(=O)NC[C@@H]3C[C@@H](OCc4ccccc4-c4ccccc4)CN3C(=O)c3sccc3C(=O)c3ccccc3)cc2)S1 [Compound A-12] | 3100 nM | 100 nM |
